Laboratory results: the NIST ThermoML archive (doi:10.1021/je7005067)
± gives the expanded uncertainty stated by the source.

Details: Liquid

CCCCC(CC)COC(=O)c1ccccc1C(=O)OCC(CC)CCCC (configuration not stated) [bis(2-ethylhexyl) 1,2-benzenedicarboxylate]
vapor or sublimation pressure (423.15 K): 0.008 ± 0.0023 kPa | vapor or sublimation pressure (433.15 K): 0.017 ± 0.0031 kPa | vapor or sublimation pressure (443.15 K): 0.0326 ± 0.0051 kPa | vapor or sublimation pressure (448.15 K): 0.0419 ± 0.0065 kPa | vapor or sublimation pressure (453.15 K): 0.0655 ± 0.01 kPa | vapor or sublimation pressure (463.15 K): 0.1154 ± 0.018 kPa | vapor or sublimation pressure (473.15 K): 0.1874 ± 0.029 kPa
